Consider 20 compounds from patent publication US6511989B2, “Acylaminoalkyl-substituted benzenesulfonamide derivatives, their preparation, their use and pharmaceutical preparations comprising them” (Aventis Pharma Deutschland GmbH, priority 2000, dated 2003).

hSUR1/hKir6.2, sequence (Q09428 whole entry): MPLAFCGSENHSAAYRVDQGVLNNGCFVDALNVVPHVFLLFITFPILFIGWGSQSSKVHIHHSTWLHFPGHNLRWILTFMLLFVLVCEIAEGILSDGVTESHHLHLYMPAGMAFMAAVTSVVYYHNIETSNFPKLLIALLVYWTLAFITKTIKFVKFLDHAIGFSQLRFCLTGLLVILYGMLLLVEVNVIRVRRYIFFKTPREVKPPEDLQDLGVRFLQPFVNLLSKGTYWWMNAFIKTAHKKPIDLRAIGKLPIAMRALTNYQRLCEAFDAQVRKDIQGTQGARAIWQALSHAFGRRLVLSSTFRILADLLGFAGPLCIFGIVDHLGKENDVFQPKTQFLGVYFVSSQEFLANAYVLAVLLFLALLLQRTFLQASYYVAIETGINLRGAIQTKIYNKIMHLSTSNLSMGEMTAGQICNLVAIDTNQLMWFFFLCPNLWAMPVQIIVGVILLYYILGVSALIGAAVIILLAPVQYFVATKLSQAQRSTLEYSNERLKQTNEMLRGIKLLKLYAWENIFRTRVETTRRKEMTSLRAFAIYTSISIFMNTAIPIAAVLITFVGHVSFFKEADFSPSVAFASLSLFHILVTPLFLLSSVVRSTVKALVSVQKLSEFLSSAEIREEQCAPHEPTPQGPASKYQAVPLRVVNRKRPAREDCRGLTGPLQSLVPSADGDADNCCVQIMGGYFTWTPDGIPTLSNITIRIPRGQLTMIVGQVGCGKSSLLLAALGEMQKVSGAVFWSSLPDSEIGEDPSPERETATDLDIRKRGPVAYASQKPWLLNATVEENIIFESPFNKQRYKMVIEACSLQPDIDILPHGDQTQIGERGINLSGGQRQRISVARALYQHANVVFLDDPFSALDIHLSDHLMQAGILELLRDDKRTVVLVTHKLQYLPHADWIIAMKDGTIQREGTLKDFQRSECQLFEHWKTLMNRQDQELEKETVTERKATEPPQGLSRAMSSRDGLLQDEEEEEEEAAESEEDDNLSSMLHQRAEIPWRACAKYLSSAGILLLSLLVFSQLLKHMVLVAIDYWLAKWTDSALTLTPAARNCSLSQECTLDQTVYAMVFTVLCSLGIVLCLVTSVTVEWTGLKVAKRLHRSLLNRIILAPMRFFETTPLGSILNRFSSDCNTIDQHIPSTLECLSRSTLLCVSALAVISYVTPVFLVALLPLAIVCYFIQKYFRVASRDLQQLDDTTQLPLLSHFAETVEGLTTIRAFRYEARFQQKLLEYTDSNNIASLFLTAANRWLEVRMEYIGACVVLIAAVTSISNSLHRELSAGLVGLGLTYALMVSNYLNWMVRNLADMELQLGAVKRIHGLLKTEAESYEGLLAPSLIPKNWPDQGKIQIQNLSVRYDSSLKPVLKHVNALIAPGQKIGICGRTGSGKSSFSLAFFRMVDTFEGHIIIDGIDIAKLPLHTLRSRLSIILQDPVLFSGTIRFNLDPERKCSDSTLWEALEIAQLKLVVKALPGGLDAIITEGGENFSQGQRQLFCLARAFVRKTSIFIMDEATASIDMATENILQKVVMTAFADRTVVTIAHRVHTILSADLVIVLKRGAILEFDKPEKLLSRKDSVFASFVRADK
hSUR1/hKir6.2, sequence (Q14654 whole entry): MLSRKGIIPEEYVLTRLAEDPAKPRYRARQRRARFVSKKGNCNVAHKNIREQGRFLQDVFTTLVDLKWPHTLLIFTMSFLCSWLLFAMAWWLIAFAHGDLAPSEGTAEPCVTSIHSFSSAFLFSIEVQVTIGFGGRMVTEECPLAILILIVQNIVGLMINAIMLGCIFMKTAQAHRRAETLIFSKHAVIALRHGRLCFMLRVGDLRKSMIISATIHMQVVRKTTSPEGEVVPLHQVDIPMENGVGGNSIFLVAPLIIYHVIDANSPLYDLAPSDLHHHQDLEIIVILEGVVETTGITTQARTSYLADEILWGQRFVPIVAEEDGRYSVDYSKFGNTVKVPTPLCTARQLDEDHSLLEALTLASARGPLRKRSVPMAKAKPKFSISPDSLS

The first data set concerns chloroform-induced ventricular fibrillation in the mouse. Kind of data set: Chloroform-induced ventricular fibrillation in the mouse. The format is in vivo. Particulars: 3 mg/kg i.p., 30 min before chloroform anesthesia; untreated control 100%. From the text: Chloroform-induced Ventricular Fibrillation in the Mouse (Action in the Case of Vagal Dysfunction)
Hypoactivity of the vagal nervous system leads to hyperactivity of the sympathetic nervous system. Damages to health that result from an inequilibrium of the autonomic nervous system when the dysfunction affects the heart include the weakening of the myocardial contractile force and fatal cardiac arrhythmias such as ventricular fibrillation. The action of the test compounds was investigated in the model of chloroform-induced ventricular fibrillation in the mouse (see J. W. Lawson, Antiarrhythmic activity of some isoquinoline derivatives determined by a rapid screening procedure in the mouse; J. Pharmacol. Exp. Ther. 160 (1968) 22).
The test compound was dissolved in a mixture of dimethyl sulfoxide (DMSO) and 10 percent sodium hydrogencarbonate solution and administered intraperitoneally (i.p.). The dose was 3 mg/kg. 30 min later, the mouse was anesthetized with chloroform in a beaker. As soon as respiratory arrest had occurred under deep anesthesia (toxic stage of anesthesia), the thorax of the animal was opened using a pair of scissors and the heartbeat was visually inspected. It can be determined here at a glance whether the heart is beating, fibrillating, or has stopped. […]
In the case of `COc1ccc(CCNC(=O)C2=CCCCC2)cc1S(=O)(=O)NC(=S)NC1CCCCC1` [Example 21, 1-[5-(2-(1-Cyclohex-1-enecarboxamido)ethyl)-2-methoxyphenylsulfonyl]-3-cyclohexyl-thiourea], the “Fibrillation ratio (in %)” value is given as 70%.

The subject of another data set is papillary muscle of the guinea pig. Kind of data set: Action potential duration on the papillary muscle of the guinea pig (hypoxia-shortened APD90). Particulars: 2 μM; 60 min after addition; relative to shortening caused by hypoxia. From the text: Action Potential Duration on the Papillary Muscle of the Guinea Pig
ATP deficiency states observed during ischemia in the cardiac muscle cell, lead to a shortening of the action potential duration (ATP=adenosine triphosphate). They are regarded as one of the causes of so-called reentry arrhythmias, which can cause sudden cardiac death. The opening of ATP-sensitive potassium channels by the lowering of the ATP level is regarded as the cause of this. For the measurement of the action potential on the papillary muscle of the guinea pig a standard microelectrode technique was employed.
Guinea pigs of both sexes were killed by a blow to the head, the hearts were removed, and the papillary muscles were separated out and suspended in an organ bath. The organ bath was rinsed with Ringer's solution (136 mmol/l of NaCl, 3.3 mmol/l of KCl, 2.5 mmol/l of CaCl2, 1.2 mmol/l of KH2PO4, 1.1 mmol/l of MgSO4, 5.0 mmol/l of glucose, 10.0 mmol/l of 1-(2-hydroxyethyl)piperazine4-(2-ethanesulfonic acid) (HEPES), pH adjusted to 7.4 with NaOH) and aerated with 100% oxygen at a temperature of 37° C. The muscle was stimulated with square-wave pulses of 1 V and 1 ms duration and a frequency of 1 Hz by means of an electrode. The action potential was derived and recorded by means of a glass microelectrode inserted intracellularly, which was filled with 3 mol/l of KCl solution. The compound to be tested was added to the Ringer's solution in a concentration of 2 μmol/l. The action potential was amplified using an amplifier from Hugo Sachs (March-Hugstetten, Germany) and stored and analyzed by means of a computer. The duration of the action potential was determined at a degree of repolarization of 90% (APD90). After an equilibration time of 30 min, the action potential shortening was produced by rinsing the papillary muscle with a hypoxic NaCl solution. The glucose was removed here, the HEPES buffer replaced by PIPES buffer (piperazine-1,4-bis(2-ethanesulfonic acid)), the pH was adjusted to 6.5 and the aeration was carried out using 100% nitrogen. After a time of 60 min, this led to a marked shortening of the APD90. After this time, the test compound was added and the relengthening of the action potential recorded after a further 60 min. The compound-caused relengthening of the APD90 was calculated as a percentage, in relation to the shortening caused by hypoxia. The test compounds were added to the bath solution as stock solution in propanediol.
The following relengthenings of the APD90 values were observed.
For the compound `CNC(=S)NS(=O)(=O)c1cc(CCNC(=O)c2cnc3ccccc3c2)ccc1OCCOC` [Example 2, 1-[5-(2-(3-Quinolinecarboxamido)ethyl)-2-(2-methoxyethoxy)phonylsulfonyl]-3-methyl-thiourea], the “Relengthening of the APD90 shortened by hypoxia” value (“Relengthening” below) is 42%.

In the case of `CNC(=S)NS(=O)(=O)c1cc(CCNC(=O)c2cnc3ccccc3c2)ccc1OCCOCC(F)(F)F` [Example 4, 1-[5-(2-(3-Quinolinecarboxamido)ethyl)-2-(2-(2,2,2-trifluoroethoxy)ethoxy)phenyl-sulfonyl]-3-methyl-thiourea], the “Relengthening” value came out at 69%. Turning to `CCCOc1ccc(CCNC(=O)c2cnc3ccccc3c2)cc1S(=O)(=O)NC(=S)NC` [Example 8, 1-[5-(2-(3-Quinolinecarboxamido)ethyl)-2-propyloxyphenylsulfonyl]-3-methyl-thiourea], the “Relengthening” value was 35%. Still for that read-out and setting: for `CNC(=S)NS(=O)(=O)c1cc(CCNC(=O)C=C(C)C)ccc1OCCOC` [Example 17, 1-[5-(2-(3-Methylbut-2-eneamido)ethyl)-2-(2-methoxyethoxy)phenylsulfonyl]-3-methyl-thiourea] the value was 34%.

The next data set addresses hSUR1/hKir6.2 (Homo sapiens, UniProt Q09428+Q14654). Kind of data set: Action on hSUR1/hKir6.2-transfected CHO cells (membrane potential, DIBAC4 fluorescence, FLIPR). The format is cell-based. The conditions noted are these: 10 μM; CHO cells activated with diaxozide. From the text:
Action on hSUR1/hKir6.2-transfected CHO Cells (Hypoglycemic Action)
The target organ of these compounds is the […] of the pancreas where they block ATP-sensitive potassium channels and produce a release of the hypoglycemic hormone insulin by influencing the electrical potential of the cell membrane.
The extent of this depolarization of the cell membrane, which is caused by the compounds according to the invention, was investigated on CHO cells that were transfected with the cloned components of human pancreatic ATP-sensitive potassium channels, hSUR1, and hKir6.2, and activated by pretreatment with diaxozide, an opener of ATP-sensitive potassium channels. The potency of a compound with respect to the membrane potential of these transfected and activated CHO cells is a measure of the hypoglycemic potential of this compound.
On the day of measurement, the microtiter plates were washed three times with PBS (physiological buffer solution). In the last washing step, 90 μl remained in each well. The cells were then loaded with the fluorescent dye DIBAC4 (Molecular Probes, Portland, Oreg., USA) by addition of 90 μl of a 10-micromolar solution of DIBAC4 in PBS and of 90 μl of a 400 micromolar solution of diaxozide in PBS to each well. After an incubation time of 30 min at 37° C., the microtiter plates were then transferred to a fluorescent microtiter plate reader (FLIPR; Molecular Devices, Sunnyvale, Calif., USA). The cells were stimulated by means of an argon laser (Innova 90; Coherent, Santa Clara, Calif., USA) at a wavelength of 488 nm and the fluorescence emission was measured by means of a CCD camera. The measurement of the membrane potential began after 4 min by addition of 20 μl of a solution of the test compound or of the control solution to each well, the resulting fluorescence emission being measured every 20 seconds for a period of 20 min. The data shown are mean values of at least 4 experiments.
Turning to `CNC(=S)NS(=O)(=O)c1cc(CCNC(=O)c2cnc3ccccc3c2)ccc1OCCOC` [Example 2, 1-[5-(2-(3-Quinolinecarboxamido)ethyl)-2-(2-methoxyethoxy)phonylsulfonyl]-3-methyl-thiourea], the “Blockade hSUR1/hKir6.2” value was found to be 6.1%.

With `CNC(=O)NS(=O)(=O)c1cc(CCNC(=O)c2cnc3ccccc3c2)ccc1OCCOC` [Example 3, 1-[5-(2-(3-Quinolinecarboxamido)ethyl)-2-(2-methoxyethoxy)phenylsulfonyl]-3-methyl-urea], the “Blockade hSUR1/hKir6.2” value came out at 0%. As to `CNC(=S)NS(=O)(=O)c1cc(CCNC(=O)c2cnc3ccccc3c2)ccc1OCCOCC(F)(F)F` [Example 4, 1-[5-(2-(3-Quinolinecarboxamido)ethyl)-2-(2-(2,2,2-trifluoroethoxy)ethoxy)phenyl-sulfonyl]-3-methyl-thiourea], the “Blockade hSUR1/hKir6.2” value amounted to 69.8%. `CNC(=S)NS(=O)(=O)c1cc(CCNC(=O)c2cnc3ccccc3c2)ccc1OCCOc1ccccc1` [Example 11, 1-[5-(2-(3-Quinolinecarboxamido)ethyl)-2-(2-phenoxyethoxy)phenylsulfonyl]-3-methyl-thiourea]: the “Blockade hSUR1/hKir6.2” value came out at 67.5%.

Test system in a further data set: not given
Assay: not given
Settings: not given
Compound `CNC(=S)NS(=O)(=O)c1cc(CCNC(=O)c2cnc3ccccc3c2)ccc1OC` [Example 1, 1-[5-(2-(3-Quinolinecarboxamido)ethyl)-2-methoxyphenylsulfonyl]-3-methyl-thiourea] had a melting point of 85 °C. Compound `CNC(=O)NS(=O)(=O)c1cc(CCNC(=O)c2cnc3ccccc3c2)ccc1OCCOCC(F)(F)F` [Example 6, 1-[5(2-(3Quinolinecarboxamido)ethyl)-2-(2(2,2,2-trifluoroethoxy)ethoxy)phenyl-sulfonyl]-3-methyl-urea] displayed a melting point of 128 °C. In turn, `CCOc1ccc(CCNC(=O)c2cnc3ccccc3c2)cc1S(=O)(=O)NC(=S)NC` [Example 7, 1-[5-(2-(3-Quinolinecarboxamido)ethyl)-2-ethoxyphenylsulfonyl]-3-methyl-thiourea] had a melting point of 189 to 193 °C. Regarding `CCCOc1ccc(CCNC(=O)c2cnc3ccccc3c2)cc1S(=O)(=O)NC(=O)NC` [Example 9], the melting point came out at 120 °C. `CCOCCOc1ccc(CCNC(=O)c2cnc3ccccc3c2)cc1S(=O)(=O)NC(=S)NC` [Example 10, 1-[5-(2-(3-Quinolinecarboxamido)ethyl)-2-(2-ethoxyethoxy)phenylsulfonyl]-3-methyl-thiourea] registered a melting point of 50 to 52 °C. `CNC(=S)NS(=O)(=O)c1cc(CCNC(=O)c2cnc3ccccc3c2)ccc1OCCOc1ccccc1` [Example 11, 1-[5-(2-(3-Quinolinecarboxamido)ethyl)-2-(2-phenoxyethoxy)phenylsulfonyl]-3-methyl-thiourea] gave a melting point of 110 °C. Still for that read-out and setting: in the case of `CNC(=S)NS(=O)(=O)c1cc(CCNC(=O)c2cnc3ccccc3c2)ccc1OCCc1ccccc1` [Example 12, 1-[5-(2-(3-Quinolinecarboxamido)ethyl)-2-(2-phenylethoxy)phenylsulfonyl]-3-methyl-thiourea] it was 124 °C; in that of `CNC(=S)NS(=O)(=O)c1cc(CCNC(=O)c2cnc3ccccc3c2)ccc1OCC(F)(F)F` [Example 13, 1-[5-(2-(3-Quinolinecarboxamido)ethyl)-2-(2,2,2-trifluoroethoxy)phenylsulfonyl]-3-methyl-thiourea], 75 °C.

The compound `CNC(=S)NS(=O)(=O)c1cc(CCNC(=O)c2cnc3ccccc3c2)ccc1-c1ccco1` [Example 14, 1-[5-(2-(3-Quinolinecarboxamido)ethyl)-2-(2-furyl)phenylsulfonyl]-3-methyl-thiourea] showed a melting point of 155 to 156 °C. The compound `CNC(=S)NS(=O)(=O)c1cc(CCNC(=O)C=C(C)C)ccc1OC` [Example 15, 1-[5-(2-(3-Methylbut-2-eneamido)ethyl)-2-methoxyphenylsulfonyl]-3-methyl-thiourea] returned a melting point of 153 to 154 °C. `CNC(=O)NS(=O)(=O)c1cc(CCNC(=O)C=C(C)C)ccc1OC` [Example 16, 1-[5-(2-(3-Methylbut-2-eneamido)ethyl)-2-methoxyphenylsulfonyl]-3-methyl-urea] had a melting point of 199 to 203 °C. Same read-out and setting: for `CNC(=S)NS(=O)(=O)c1cc(CCNC(=O)C2=CCCCC2)ccc1OC` [Example 18, 1-[5-(2-(1-Cyclohex-1-enecarboxamido)ethyl)-2-methoxyphenylsulfonyl]-3-methyl-thiourea] the value was 179 to 182 °C. Still for that read-out and setting: for `CNC(=O)NS(=O)(=O)c1cc(CCNC(=O)C2=CCCCC2)ccc1OC` [Example 19, 1-[5-(2-(1-Cyclohex-1-enecarboxamido)ethyl)-2-methoxyphenylsulfonyl]-3-methyl-urea] the value was 175 °C. The same measure, in the same setting: for `CNC(=S)NS(=O)(=O)c1cc(CCNC(=O)C2=CCCCC2)ccc1OCCOC` [Example 22, 1-[5-(2-(1-Cyclohex-1-enecarboxamido)ethyl)-2-(2-methoxyethoxy)phenylsulfonyl]-3-methyl-thiourea] the value was 150 to 155 °C.
